{"source": "paper PMC11229374", "about": "“Unlocking the potential of protein-derived peptides to target G-quadruplex DNA: from recognition to anticancer activity” (Nucleic Acids Research, 2024)", "key": {"U2OS cells": {"system": "U2OS cells", "experiment": "Viability assay (crystal violet), U2OS", "format": "cell-based", "conditions": "72 h treatment", "procedure": "U2OS, HCT116 and MDA-MB-231 cells were purchased from the ATCC and grown in Dulbecco modified Eagle's medium (DMEM; EuroClone, Milan, Italy; ECM0728L) supplemented with 10% Fetal Bovine Serum (FBS, ThermoFisher Scientific/Gibco, Waltham, MA, USA; 10270-106), 2 mM L-glutamine and antibiotics in a humidified incubator at 37°C with 5% CO2 and atmospheric O2 concentration. Cell lines were authenticated and tested to be mycoplasma-free.\nU2OS, HCT116, and MDA-MB-231 cells were seeded in 24-well plates at a density of 1 × 10^4, 20 × 10^3 and 12 × 10^3 for each well, respectively. After 24 h, cells were treated with the indicated peptides and incubated at 37°C for additional 72 h. Upon treatment completion, cell medium was removed, the wells were washed twice in phosphate-buffered saline (PBS) and fixed with 4% formaldehyde for 15 min at room temperature (RT). After washing, 500 μl of crystal violet staining solution (Sigma-Aldrich, St. Louis, MO, USA) was added to each well and incubated for 30 min at RT. Finally, the plates were rinsed twice with water, air-dried and cell pellets were dissolved in 400 μl of a 10% aqueous solution of acetic acid. In total, 200 μl of each sample was transferred to a 96-well plate, and the optical density was measured at 570 nm (OD570) with an ELISA reader (Thermo Scientific, Waltham, MA, USA). The average absorbance in each condition was used to calculate the viability expressed as a percentage of treated vs untreated conditions (CTR)."}, "γH2AX in U2OS cells": {"system": "γH2AX in U2OS cells", "experiment": "Immunofluorescence of γH2AX (DNA damage)", "format": "cell-based", "conditions": "10 μM peptide, 24 h", "procedure": "To evaluate telomere-localized DNA damage, FISH assay with a telomeric probe was combined to IF staining of γH2AX. Cells were seeded on glass coverslips in a 6-well plate at a density of 1 × 10^5 cells/well. After 24 h of treatment with indicated peptides, cells were washed three times with PBS 1×, fixed with formaldehyde 4% in PBS for 2 min at RT and washed three times with PBS 1×. The fixation protocol was repeated twice and then the samples were dehydrated by sequential exposure to 70%, 90% and 100% EtOH and DNA was denatured by incubation at 80°C for 3 min in the presence of the telomere probe solution (10 mM of Tris pH 7.2, MgCl2 buffer, 70% of deionized formamide, […] of TelC-Cy3 telomeric probe (Panagene, Daejeon, Korea), 0.25% of blocking reagent). […] For quantitative analysis of γH2AX positive cells, at least 200 cells/condition were scored in triplicate. For Telomere-Induced Foci (TIFs) analysis, at least 25 γH2AX-positive cells on a single plane were scored. […] Fluorescence signals were recorded with Zeiss Laser Scanning Microscope 510 Meta (63× magnification) (Zeiss, Germany) and the experiment was analyzed with Adobe Photoshop CC 2019."}, "HER2": {"system": "HER2", "experiment": "Real-time RT-PCR of HER2 expression", "format": "cell-based", "conditions": "U2OS, 10 μM peptide, 8, 16 and 24 h", "procedure": "(§1) U2OS cells were seeded on glass coverslips in a 6-well plate at a density of 2 × 10^5 cells/well and treated with the peptides for 8, 16, and 24 h. Total RNA was isolated from the cell lines using WizPrep™ Total RNA Mini Kit (Cell). The quality and the quantity of RNA extraction was assessed by evaluating the A280/A260 nm and A260/A230 nm absorbance ratio (Nanodrop 1000, Thermo Fisher Scientific). The mRNA Reverse Transcription (RT) was performed using the QuantiTect Reverse Transcription Kit (Qiagen). mRNA expression was evaluated by SYBR Green (Applied Biosystems) in the QuantStudio 6 Flex Detection system (ThermoFisher Scientific). Primer sequences are indicated in Supplementary Table S2."}, "BCL-2": {"system": "BCL-2", "experiment": "Real-time RT-PCR of BCL-2 expression", "format": "cell-based", "conditions": "U2OS, 10 μM peptide, 8, 16 and 24 h", "procedure": "as §1"}, "G4": {"system": "G4", "experiment": "CD experiments, G4-stabilizing properties of R7W conjugate versus parent", "format": "binding", "conditions": "CD experiments (Supplementary Figure S39)", "excerpt": "The buffer baseline was subtracted from each spectrum."}, "FITC-MybA400": {"biological_target": "T1, FITC-MybA400 (UniProt P11938 397-415, G400A)", "T1 chain": "{FITC-AEEA}-NHTANSIRHRFRVYLSKRL-NH2", "experiment": "MST; 20 mM K+; 5 mM KH2PO4/K2HPO4 pH 7.0, 20 mM KCl (LiCl for c-MYC stock), 25 C; MST with 0.1% Tween and 5% DMSO, 20 nM FITC-peptide", "conditions": "tags: N-terminal FITC; parallel G4"}, "FITC-Myb397-415": {"biological_target": "T2, FITC-Myb397-415 (UniProt P11938 397-415)", "T2 chain": "{FITC-AEEA}-NHTGNSIRHRFRVYLSKRL-NH2", "experiment": "microscale thermophoresis; 5 mM KH2PO4/K2HPO4, 20 mM KCl (c-MYC stock annealed in LiCl), pH 7.0; MST 25 C with 0.1% Tween, 5% DMSO, 20 nM labelled peptide, DNA titrated (stocks from 10 or 20 uM, mixed 1:1); ITC 25 C", "conditions": "tags: N-terminal FITC-O2Oc; C-terminal NH2; parallel G4"}, "MybA412": {"biological_target": "T3, MybA412 (Saccharomyces cerevisiae, UniProt P11938 397-415, S412A)", "T3 chain": "NHTGNSIRHRFRVYLAKRL", "experiment": "isothermal titration calorimetry; 5 mM KH2PO4/K2HPO4, 20 mM KCl (c-MYC stock annealed in LiCl), pH 7.0; MST 25 C with 0.1% Tween, 5% DMSO, 20 nM labelled peptide, DNA titrated (stocks from 10 or 20 uM, mixed 1:1); ITC 25 C", "conditions": "tags: N-acetyl; C-terminal NH2; chain copies: 2; parallel G4"}, "MybA400": {"biological_target": "T4, MybA400 (UniProt P11938 397-415, G400A)", "T4 chain": "NHTANSIRHRFRVYLSKRL", "experiment": "isothermal titration calorimetry; 5 mM KH2PO4/K2HPO4, 20 mM KCl (c-MYC stock annealed in LiCl), pH 7.0; MST 25 C with 0.1% Tween, 5% DMSO, 20 nM labelled peptide, DNA titrated (stocks from 10 or 20 uM, mixed 1:1); ITC 25 C", "conditions": "tags: N-acetyl; C-terminal NH2; chain copies: 2; parallel G4"}, "Myb397-415": {"biological_target": "T5, Myb397-415 (UniProt P11938 397-415)", "T5 chain": "NHTGNSIRHRFRVYLSKRL", "experiment": "isothermal titration calorimetry; 5 mM KH2PO4/K2HPO4, 20 mM KCl (c-MYC stock annealed in LiCl), pH 7.0; MST 25 C with 0.1% Tween, 5% DMSO, 20 nM labelled peptide, DNA titrated (stocks from 10 or 20 uM, mixed 1:1); ITC 25 C", "conditions": "tags: N-acetyl; C-terminal NH2; chain copies: 2; parallel G4"}}, "note": "*: point of attachment. FITC = O=C1OC2(c3ccc(O)cc3Oc3cc(O)ccc32)c2ccc(NC(=S)*)cc21; AEEA = NCCOCCOCC(=O)O", "data": [{"molecule": "RRRRRRRW-GG-NHTANSIRHRFRVYLSKRL [R7W-Myb^A400, Myb^A400 N-terminally conjugated to the cell-penetrating peptide R7W via a glycine–glycine spacer]", "values": [{"measurement": "Inhibition of tumour cell growth, R7W-conjugated peptides", "setting": "U2OS cells", "result": "essentially to the same extent as R7W-Myb^397–415"}, {"measurement": "Accumulation of phosphorylated histone H2AX (γH2AX)", "setting": "γH2AX in U2OS cells", "result": "most pronounced response"}]}, {"molecule": "RRRRRRRW-GG-NHTGNSIRHRFRVYLSKRL [R7W-Myb^397–415]", "values": [{"measurement": "IC50", "setting": "U2OS cells; read-out: IC50 (concentration of drug capable of killing 50% of cells)", "result": "~5000", "unit": "nM"}, {"measurement": "HER2 expression level", "setting": "HER2", "result": "transiently modulated"}, {"measurement": "BCL-2 expression level", "setting": "BCL-2", "result": "transiently modulated"}, {"measurement": "G4-stabilizing properties compared with Myb^397–415", "setting": "G4", "result": "no significant differences"}]}, {"molecule": "CGGGCGGGCGCTAGGGAGGGT (structured_DNA)", "note": "[c-KIT2]", "values": [{"measurement": "Kd", "setting": "FITC-MybA400", "result": "~170", "unit": "nM"}, {"measurement": "Kd", "setting": "FITC-Myb397-415", "result": "130 ± 15", "unit": "nM"}, {"measurement": "Kd", "setting": "MybA412", "result": "187 ± 28", "unit": "nM"}, {"measurement": "Kd", "setting": "MybA400", "result": "137 ± 24", "unit": "nM"}, {"measurement": "Kd", "setting": "Myb397-415", "result": "200 ± 12", "unit": "nM"}]}]}
